According to patent US12558357B2, “Tetrahydroquinazoline derivatives as selective cytotoxic agents” (Merck Sharp & Dohme LLC, priority 2020, dated 2026):
pEC50: −log10 of the molar value.

test system: PBMCs infected with VSV-G pseudotyped HIV virus (VSV-G/pNLG1-P2A-ΔEnv); experiment: cells; type: cell-based, human; details: Homo sapiens, PBMC, read-out: EC50 (HIV-TACK cell kill activity)

`N#Cc1cc(=O)n(Cc2ccc3c(c2)NC(=O)N[C@]3(C#CC2CC2)C(F)(F)F)cn1` [Example 27, (S)-1-((4-(cyclopropylethynyl)-2-oxo-4-(trifluoromethyl)-1,2,3,4-tetrahydroquinazolin-7-yl)methyl)-6-oxo-1,6-dihydropyrimidine-4-carbonitrile] and `Nc1cc(=O)n(Cc2ccc3c(c2)NC(=O)N[C@]3(C#CC2CC2)C(F)(F)F)cn1` [Example 28, (S)-7-((4-amino-6-oxopyrimidin-1(6H)-yl)methyl)-4-(cyclopropylethynyl)-4-(trifluoromethyl)-3,4-dihydroquinazolin-2(1H)-one] are within 0.2 log units of each other in pEC50: 6.72 for the first, 6.77 for the second.

Compared with `O=C1Nc2cc(Cn3nc(Cl)ccc3=O)ccc2[C@@](C#CC2CC2)(C(F)(F)F)N1` [Example 29, (S)-7-((3-chloro-6-oxopyridazin-1(6H)-yl)methyl)-4-(cyclopropylethynyl)-4-(trifluoromethyl)-3,4-dihydroquinazolin-2(1H)-one], `O=C1Nc2cc(Cn3cnc(Cl)cc3=O)ccc2[C@@](C#CC2CC2)(C(F)(F)F)N1` [Example 35, (S)-7-((4-chloro-6-oxopyrimidin-1(6H)-yl)methyl)-4-(cyclopropylethynyl)-4-(trifluoromethyl)-3,4-dihydroquinazolin-2(1H)-one] is 0.21 log units higher in pEC50: 6.79 for the first, 7.00 for the second. The second is the more potent here.

First: Cc1cnc(N)c(=O)n1Cc1ccc2c(c1)NC(=O)N[C@]2(C#CC1CC1)C(F)(F)F [Example 30, (S)-7-((3-amino-6-methyl-2-oxopyrazin-1(2H)-yl)methyl)-4-(cyclopropylethynyl)-4-(trifluoromethyl)-3,4-dihydroquinazolin-2(1H)-one]
Second: Nc1c(Cl)ncn(Cc2ccc3c(c2)NC(=O)N[C@]3(C#CC2CC2)C(F)(F)F)c1=O [Example 40, (S)-7-((5-amino-4-chloro-6-oxopyrimidin-1(6H)-yl)methyl)-4-(cyclopropylethynyl)-4-(trifluoromethyl)-3,4-dihydroquinazolin-2(1H)-one]
The pEC50 of the first is 0.37 log units lower: 6.82 for the first, 7.19 for the second.

`COCc1cc(=O)n(Cc2ccc3c(c2)NC(=O)N[C@]3(C#CC2CC2)C(F)(F)F)cn1` [Example 31, (S)-4-(cyclopropylethynyl)-7-((4-(methoxymethyl)-6-oxopyrimidin-1(6H)-yl)methyl)-4-(trifluoromethyl)-3,4-dihydroquinazolin-2(1H)-one] and `Cc1cc(=O)n(Cc2ccc3c(c2)NC(=O)N[C@]3(C#CC2CC2)C(F)(F)F)cn1` [Example 34, (S)-4-(cyclopropylethynyl)-7-((4-methyl-6-oxopyrimidin-1(6H)-yl)methyl)-4-(trifluoromethyl)-3,4-dihydroquinazolin-2(1H)-one] are within 0.2 log units of each other in pEC50: 6.84 for the first, 6.93 for the second.

`Nc1c(C(F)(F)F)ncn(Cc2ccc3c(c2)NC(=O)N[C@]3(C#CC2CC2)C(F)(F)F)c1=O` [Example 33, (S)-7-((5-amino-6-oxo-4-(trifluoromethyl)pyrimidin-1(6H)-yl)methyl)-4-(cyclopropylethynyl)-4-(trifluoromethyl)-3,4-dihydroquinazolin-2(1H)-one] and `N#Cc1ncn(Cc2ccc3c(c2)NC(=O)N[C@]3(C#CC2CC2)C(F)(F)F)c(=O)c1N` [Example 57, (S)-5-amino-1-((4-(cyclopropylethynyl)-2-oxo-4-(trifluoromethyl)-1,2,3,4-tetrahydroquinazolin-7-yl)methyl)-6-oxo-1,6-dihydropyrimidine-4-carbonitrile] are the same in pEC50: 6.90 for the first, 6.90 for the second.

`O=C1Nc2cc(Cn3cnc(C(F)F)cc3=O)ccc2[C@@](C#CC2CC2)(C(F)(F)F)N1` [Example 36, (S)-4-(cyclopropylethynyl)-7-((4-(difluoromethyl)-6-oxopyrimidin-1(6H)-yl)methyl)-4-(trifluoromethyl)-3,4-dihydroquinazolin-2(1H)-one] and `Nc1cncn(Cc2ccc3c(c2)NC(=O)N[C@]3(C#CC2CC2)C(F)(F)F)c1=O` [Example 37, (S)-1-((4-(cyclopropylethynyl)-2-oxo-4-(trifluoromethyl)-1,2,3,4-tetrahydroquinazolin-7-yl)methyl)-6-oxo-1,6-dihydropyrimidin-5-aminium 2,2,2-trifluoroacetate] are within 0.2 log units of each other in pEC50: 7.00 for the first, 7.05 for the second.

First: O=C1Nc2cc(Cn3cnc(C(F)(F)F)cc3=O)c(F)cc2[C@@](C#CC2CC2)(C(F)(F)F)N1 [Example 38, (S)-4-(cyclopropylethynyl)-6-fluoro-7-((6-oxo-4-(trifluoromethyl)pyrimidin-1(6H)-yl)methyl)-4-(trifluoromethyl)-3,4-dihydroquinazolin-2(1H)-one]
Second: O=C1Nc2cc(Cn3cnc(C(F)(F)F)cc3=O)c(Cl)cc2[C@@](C#CC2CC2)(C(F)(F)F)N1 [Example 42, (S)-6-chloro-4-(cyclopropylethynyl)-7-((6-oxo-4-(trifluoromethyl)pyrimidin-1(6H)-yl)methyl)-4-(trifluoromethyl)-3,4-dihydroquinazolin-2(1H)-one]
The pEC50 of the first is 0.22 log units lower: 7.06 for the first, 7.28 for the second. The second is the more potent here.

`Nc1cccn(Cc2cc3c(cc2F)[C@@](C#CC2CC2)(C(F)(F)F)NC(=O)N3)c1=O` [Example 39, (S)-7-((3-amino-2-oxopyridin-1(2H)-yl)methyl)-4-(cyclopropylethynyl)-6-fluoro-4-(trifluoromethyl)-3,4-dihydroquinazolin-2(1H)-one] and `Nc1cc(=O)n(Cc2cc3c(cc2F)[C@@](C#CC2CC2)(C(F)(F)F)NC(=O)N3)cn1` [Example 41, (S)-7-((4-amino-6-oxopyrimidin-1(6H)-yl)methyl)-4-(cyclopropylethynyl)-6-fluoro-4-(trifluoromethyl)-3,4-dihydroquinazolin-2(1H)-one] are within 0.2 log units of each other in pEC50: 7.14 for the first, 7.22 for the second.

`Cc1cc(=O)n(Cc2cc3c(cc2F)[C@@](C#CC2CC2)(C(F)(F)F)NC(=O)N3)cn1` [Example 43, (S)-4-(cyclopropylethynyl)-6-fluoro-7-((4-methyl-6-oxopyrimidin-1(6H)-yl)methyl)-4-(trifluoromethyl)-3,4-dihydroquinazolin-2(1H)-one] and `O=C1Nc2cc(Cn3cnc(Cl)cc3=O)c(F)cc2[C@@](C#CC2CC2)(C(F)(F)F)N1` [Example 44, (S)-7-((4-chloro-6-oxopyrimidin-1(6H)-yl)methyl)-4-(cyclopropylethynyl)-6-fluoro-4-(trifluoromethyl)-3,4-dihydroquinazolin-2(1H)-one] are within 0.2 log units of each other in pEC50: 7.30 for the first, 7.33 for the second.

Compared with `Nc1nccn(Cc2cc3c(cc2Br)[C@@](C#CC2CC2)(C(F)(F)F)NC(=O)N3)c1=O` [Example 45, (S)-7-((3-amino-2-oxopyrazin-1(2H)-yl)methyl)-6-bromo-4-(cyclopropylethynyl)-4-(trifluoromethyl)-3,4-dihydroquinazolin-2(1H)-one], `CC(F)(F)[C@@]1(C#CC2CC2)NC(=O)Nc2cc(Cn3ccnc(N)c3=O)ccc21` [Example 53, (S)-7-((3-amino-2-oxopyrazin-1(2H)-yl)methyl)-4-(cyclopropylethynyl)-4-(1,1-difluoroethyl)-3,4-dihydroquinazolin-2(1H)-one] is 0.44 log units higher in pEC50: 7.30 for the first, 7.74 for the second.

First: CN1C(=O)Nc2cc(Cn3ccnc(N)c3=O)ccc2[C@@]1(C#CC1CC1)C(F)(F)F [Example 46, (S)-7-((3-amino-2-oxopyrazin-1(2H)-yl)methyl)-4-(cyclopropylethynyl)-3-methyl-4-(trifluoromethyl)-3,4-dihydroquinazolin-2(1H)-one]
Second: O=C1Nc2cc(Cn3ccc(=O)[nH]c3=O)ccc2[C@@](C#CC2CC2)(C(F)(F)F)N1 [Example 54, (S)-1-((4-(cyclopropylethynyl)-2-oxo-4-(trifluoromethyl)-1,2,3,4-tetrahydroquinazolin-7-yl)methyl)pyrimidine-2,4(1H,3H)-dione]
The pEC50 of the first is 0.45 log units higher: 7.00 for the first, 6.55 for the second. The first is the more potent here.

`Cc1cn(Cc2ccc3c(c2)NC(=O)N[C@]3(C#CC2CC2)C(F)(F)F)c(=O)[nH]c1=O` [Example 47, (S)-1-((4-(cyclopropylethynyl)-2-oxo-4-(trifluoromethyl)-1,2,3,4-tetrahydroquinazolin-7-yl)methyl)-5-methylpyrimidine-2,4(1H,3H)-dione] and `CC(F)(F)[C@@]1(C#CC2CC2)NC(=O)Nc2cc(Cn3cnccc3=O)ccc21` [Example 55, (S)-4-(cyclopropylethynyl)-4-(1,1-difluoroethyl)-7-((6-oxopyrimidin-1(6H)-yl)methyl)-3,4-dihydroquinazolin-2(1H)-one] are within 0.2 log units of each other in pEC50: 6.87 for the first, 7.02 for the second.

Compared with `CC(F)(F)[C@@]1(C#CC2CC2)NC(=O)Nc2cc(Cn3cnccc3=O)c(Cl)cc21` [Example 48, (S)-6-chloro-4-(cyclopropylethynyl)-4-(1,1-difluoroethyl)-7-((6-oxopyrimidin-1(6H)-yl)methyl)-3,4-dihydroquinazolin-2(1H)-one], `O=C1Nc2cc(Cn3cnccc3=O)c(Cl)cc2[C@@](C#CC2CC2)(C(F)(F)F)N1` [Example 56, (S)-6-chloro-4-(cyclopropylethynyl)-7-((6-oxopyrimidin-1(6H)-yl)methyl)-4-(trifluoromethyl)-3,4-dihydroquinazolin-2(1H)-one] is 0.46 log units lower in pEC50: 7.92 for the first, 7.46 for the second. The first is the more potent here.

Compared with `O=C1Nc2c(cc(F)c(Cn3cnccc3=O)c2F)[C@@](C#CC2CC2)(C(F)(F)F)N1` [Example 49, (S)-4-(cyclopropylethynyl)-6,8-difluoro-7-((6-oxopyrimidin-1(6H)-yl)methyl)-4-(trifluoromethyl)-3,4-dihydroquinazolin-2(1H)-one], `Cc1ccc(=O)n(Cc2cc3c(cc2F)[C@@](C#CC2CC2)(C(C)(F)F)NC(=O)N3)n1` [Example 51, (S)-4-(cyclopropylethynyl)-4-(1,1-difluoroethyl)-6-fluoro-7-((3-methyl-6-oxopyridazin-1(6H)-yl)methyl)-3,4-dihydroquinazolin-2(1H)-one] is 0.25 log units higher in pEC50: 7.02 for the first, 7.27 for the second. The second is the more potent here.

Compound `CC(F)(F)[C@@]1(C#CC2CC2)NC(=O)Nc2cc(Cn3ncccc3=O)c(F)cc21` [Example 50, (S)-4-(cyclopropylethynyl)-4-(1,1-difluoroethyl)-6-fluoro-7-((6-oxopyridazin-1(6H)-yl)methyl)-3,4-dihydroquinazolin-2(1H)-one] has a pEC50 of 7.49.

same assay, conditions: read-out: EC50 (HIV-TACK cell kill activity); 2,2,2-trifluoroacetate

`Nc1cc(=O)n(Cc2ccc3c(c2)NC(=O)N[C@]3(C#CC2CC2)C(F)(F)F)cn1` [Example 32, (S)-1-((4-(cyclopropylethynyl)-2-oxo-4-(trifluoromethyl)-1,2,3,4-tetrahydroquinazolin-7-yl)methyl)-6-oxo-1,6-dihydropyrimidin-4-aminium 2,2,2-trifluoroacetate] was tested, and the pEC50 was 6.85.
